Experimental data as given in US8858985B2, “Films comprising a liquid-absorbant inner layer, an antimicrobial material and an impermeable outer layer” (E I du Pont de Nemours and Company, priority 2004, dated 2014).

Legend:
L. monocytogenes = assay: film on lawn assay; assay type: cell-based
Method: Films of Example 1 and Example 2 at 150μ in thickness were cut into 15 mm by 15 mm samples placed onto aluminum foil, and exposed to UV light in a laminar flow hood for 4 to 7 minutes. The samples were then transferred from foil to various solutions as described in Table 6 to soak for 12 to 24 hours at room temperature.
(§1) For each antimicrobial solution concentration, a spot on lawn assay procedure was first conducted on agar plates to assess the efficacy of the solution to colony control. In this procedure, the TSA agar plates were inoculated with L. monocytogenes 15313 at a level of 10E+08 cfu/ml through an Autoplate 4000 model from Spiral Biotech. A volumetric pipette pump was then used to place three 10-μl spots of an antimicrobial solution onto appropriate regions of the test plate. Separately, another volumetric pipette pump was used to place 10 μl of a control solution (i.e., the solution in which the antimicrobial agent is dissolved). Three such agar plates were prepared for each concentration of antimicrobial solution. After spot placement, the plates were allowed to stand undisturbed for 10 to 30 minutes in a laminar flow hood before incubation at 37° C. for at least 24 hours. The resultant zones of inhibition were measured using a dial caliper (Brown and Sharpe, accuracy to 0.02 mm) with each zone measured twice on a 90° axis. Three such spots (for the antimicrobial treated solution) were so measured per plate, with three plates per condition to provide 18 such measurements. […] In the film on lawn procedure, 15 mm×15 mm films of example 1 and 2 were placed in freshly made up solutions for 12 to 24 hours at room temperature and then removed with a pair of flame-sterilized ocular forceps, allowed to drip dry, then placed for 60 seconds on a sterile Petri-dish before positioning on agar plates in a film on lawn assay procedure. The TSA agar plates had been prepared by inoculating with L. monocytogenes at a level of 10E+08 cfu/ml through an Autoplate 4000 model from Spiral Biotech. Two such films were so placed on the prepared TSA agar plates. A third 15 mm×15 mm film was soaked under the same conditions in a control solution (the solution without the antimicrobial agent) and placed in a third region of the plate. Three such plates were prepared in this manner for each concentration of antimicrobial agent. After film placement, the plates were allowed to stand undisturbed for 10 to 30 minutes in a laminar flow hood before incubation at 37° C. for at least 24 hours. The resultant zones of inhibition were measured using a dial caliper (Brown and Sharpe, accuracy to 0.02 mm) with each zone measured twice on a 90° axis. Two such films (for the antimicrobial treated film) were so measured per plate, with three plates per condition to provide 12 such measurements. No zones of inhibition were recorded for the control films.

L. monocytogenes 15313 = assay: spot on lawn assay; assay type: cell-based; details: 10-μl spots
Excerpt: as §1, with “Two such films were so placed on the prepared TSA agar plates. A third 15 mm×15 mm film was soaked under the same conditions in a control solution (the solution without the antimicrobial agent) and placed in a third region of the plate. Three such plates were prepared in this manner for each concentration of antimicrobial agent. After film placement, the plates were allowed to stand undisturbed for 10 to 30 minutes in a laminar flow hood before incubation at 37° C. for at least 24 hours.” left out

Compound	Group averages of Inhibition Zones (mm), Film on Lawn Assay Example 1 (L. monocytogenes; 15 mm x 15 mm film of Example 1 soaked 12-24 h in 0.75 wt % in Ethanol/Water (36/63.25))	Group averages of Inhibition Zones (mm), Film on Lawn Assay Example 2 (L. monocytogenes; 15 mm x 15 mm film of Example 2 soaked 12-24 h in 0.75 wt % in Ethanol/Water (36/63.25))	Group averages of Inhibition Zones (mm), Film on Lawn Assay Example 1 (L. monocytogenes; film of Example 1 soaked in 1.5 wt % in Ethanol/Water (36/62.5))	Group averages of Inhibition Zones (mm), Film on Lawn Assay Example 1 (L. monocytogenes; film of Example 1 soaked in 3.0 wt % in Ethanol/Water (36/61))	Group averages of Inhibition Zones (mm), Film on Lawn Assay Example 2 (L. monocytogenes; film of Example 2 soaked in 1.5 wt % in Ethanol/Water (36/62.5))	Group averages of Inhibition Zones (mm), Film on Lawn Assay Example 2 (L. monocytogenes; film of Example 2 soaked in 3.0 wt % in Ethanol/Water (36/61))	Group averages of Inhibition Zones (mm), Spot on Lawn Assay (L. monocytogenes 15313; 0.75 wt % in Ethanol/Water (36/63.25))	Group averages of Inhibition Zones (mm), Spot on Lawn Assay (L. monocytogenes 15313; 1.5 wt % in Ethanol/Water (36/62.5))	Group averages of Inhibition Zones (mm), Spot on Lawn Assay (L. monocytogenes 15313; 3.0 wt % in Ethanol/Water (36/61))	Group averages of Inhibition Zones (mm), Film on Lawn Assay Example 1 (L. monocytogenes; film of Example 1 soaked in 5 wt % in Water (95))	Group averages of Inhibition Zones (mm), Film on Lawn Assay Example 1 (L. monocytogenes; film of Example 1 soaked in 7.5 wt % in Water (92.5))	Group averages of Inhibition Zones (mm), Film on Lawn Assay Example 1 (L. monocytogenes; film of Example 1 soaked in 10 wt % in Water (90))	Group averages of Inhibition Zones (mm), Film on Lawn Assay Example 2 (L. monocytogenes; film of Example 2 soaked in 5 wt % in Water (95))	Group averages of Inhibition Zones (mm), Film on Lawn Assay Example 2 (L. monocytogenes; film of Example 2 soaked in 7.5 wt % in Water (92.5))	Group averages of Inhibition Zones (mm), Film on Lawn Assay Example 2 (L. monocytogenes; film of Example 2 soaked in 10 wt % in Water (90))
O=C(O)c1ccccc1 [Benzoic acid]	21.55 ± 0.77 mm	23.49 ± 1.47 mm	25.92 ± 1.02 mm	25.76 ± 0.41 mm	27.85 ± 0.96 mm	27.6 ± 2.03 mm	7.31 ± 0.91 mm	7.70 ± 0.61 mm	8.64 ± 0.76 mm						
O=C(O)CC(O)(CC(=O)O)C(=O)O [Citric acid]										Slight^3	19.21 ± 0.25 mm	21.00 ± 0.63 mm	0 mm	0 mm	0 mm
